According to ChEMBL document CHEMBL5247647, “Phenothiazine-Based LSD1 Inhibitor Promotes T-Cell Killing Response of Gastric Cancer Cells” (J Med Chem, 2023):
Calls of active or inactive are those of the source. The calls are words filed in the database; no cut-off is given here.

How the values were obtained:
[1] = biological target: T1, Lysine-specific histone demethylase 1A (Homo sapiens, UniProt O60341); assay: Inhibition of human LSD1 in human LSD1 knockout BGC-823 cells assessed as effect on H3K4me2 methylation at 5 to 20 uM incubated for 5 days by Western blot anlaysis; type: cell-based; conditions: dose 5-20 µM, time 5.0 day
[2] = system: MFC; assay: Antitumor activity against mouse MFC cells xenografted in 615 mouse assessed as increase in IFNgamma mRNA expression level in tumor at 10 to 50 mg/kg, po for 14 days; type: functional, organism-based; conditions: dose 10-50 mg/kg, time 14.0 day
[3] = system: MFC; assay: Antitumor activity against mouse MFC cells xenografted in 615 mouse assessed as increase in IL-2 mRNA expression level in tumor at 10 to 50 mg/kg, po for 14 days; type: functional, organism-based; conditions: dose 10-50 mg/kg, time 14.0 day
[4] = biological target: T1, Lysine-specific histone demethylase 1A; assay: Inhibition of human LSD1 in human BGC-823 cells assessed as inhibition of H3K4me2 demethylation at 5 to 20 uM incubated for 5 days by Western blot anlaysis; type: cell-based; conditions: dose 5-20 µM, time 5.0 day
[5] = Toxicity against 615 mouse xenografted with mouse MFC cells in assessed as pathological changes in kidney at 10 to 50 mg/kg, po for 14 days by Hematoxylin and Eosin staining based microscopic analysis; type: organism-based; conditions: in vivo, 336 h, dose 10-50 mg/kg, time 14 day
[6] = system: MFC; assay: Downregulation of PD-L1 expression in mouse LSD1 knockout MFC cells at 5 to 20 uM incubated for 5 days by Western blot anlaysis; type: functional, cell-based; conditions: dose 5-20 µM, time 5.0 day
[7] = Toxicity against 615 mouse xenografted with mouse MFC cells in assessed as body weight change in tumor at 10 to 50 mg/kg, po for 14 days; type: organism-based; conditions: in vivo, 336 h, dose 10-50 mg/kg, time 14 day
[8] = system: BGC-823; assay: Anticancer activity against human PD-L1 knockout BGC-823 cells assessed as increase in CD3/CD28 activated T-cell killing response at 5 to 20 uM incubated for 5 days by DAPI staining based assay; type: functional; conditions: dose 5-20 µM, time 5.0 day
[9] = Toxicity against 615 mouse xenografted with mouse MFC cells in assessed as pathological changes in spleen at 10 to 50 mg/kg, po for 14 days by Hematoxylin and Eosin staining based microscopic analysis; type: organism-based; conditions: in vivo, 336 h, dose 10-50 mg/kg, time 14 day
[10] = biological target: T2, Lysine-specific histone demethylase 2 (Homo sapiens) (UniProt Q8NB78); assay: Inhibition of recombinant LSD2 (unknown origin) at 10 uM
T2 sequence (whole entry): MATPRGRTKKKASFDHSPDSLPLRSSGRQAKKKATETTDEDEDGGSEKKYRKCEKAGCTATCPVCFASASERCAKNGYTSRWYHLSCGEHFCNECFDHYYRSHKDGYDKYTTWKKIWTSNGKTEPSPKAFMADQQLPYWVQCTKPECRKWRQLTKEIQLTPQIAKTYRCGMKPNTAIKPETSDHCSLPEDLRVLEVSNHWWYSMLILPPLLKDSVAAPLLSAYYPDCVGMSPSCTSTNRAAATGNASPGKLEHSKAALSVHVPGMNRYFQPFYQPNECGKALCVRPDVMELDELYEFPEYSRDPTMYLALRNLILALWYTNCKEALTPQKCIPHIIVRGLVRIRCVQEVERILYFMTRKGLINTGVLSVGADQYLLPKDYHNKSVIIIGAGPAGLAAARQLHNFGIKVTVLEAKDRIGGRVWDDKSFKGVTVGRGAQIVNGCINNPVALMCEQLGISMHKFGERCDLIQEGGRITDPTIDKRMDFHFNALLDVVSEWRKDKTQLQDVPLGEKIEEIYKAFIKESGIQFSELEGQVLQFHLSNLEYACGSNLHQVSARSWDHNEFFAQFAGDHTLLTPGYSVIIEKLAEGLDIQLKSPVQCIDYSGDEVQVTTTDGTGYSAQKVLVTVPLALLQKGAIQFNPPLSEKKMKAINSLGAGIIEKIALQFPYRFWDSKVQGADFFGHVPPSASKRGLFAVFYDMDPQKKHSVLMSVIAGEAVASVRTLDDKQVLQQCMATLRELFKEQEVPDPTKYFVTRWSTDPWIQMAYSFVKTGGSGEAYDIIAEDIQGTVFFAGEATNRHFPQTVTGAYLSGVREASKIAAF

[11] = system: BGC-823; assay: Antiproliferative activity against human BGC-823 cells assessed as inhibition of cell proliferation incubated for 48 hrs by SRB assay; type: functional, cell-based
[12] = biological target: T1, Lysine-specific histone demethylase 1A; assay: Inhibition of human LSD1 in human BGC-823 cells assessed as inhibition of H3K4me3 demethylation at 5 to 20 uM incubated for 5 days by Western blot anlaysis; type: cell-based; conditions: dose 5-20 µM, time 5.0 day
[13] = system: BGC-823; assay: Anticancer activity against human BGC-823 cells assessed as increase in CD3/CD28 activated T-cell killing response by measuring IFNgamma level at 5 to 20 uM incubated for 5 days by Sandwich ELISA; type: functional, cell-based; conditions: dose 5-20 µM, time 5.0 day
[14] = biological target: T3, MAO-A (Homo sapiens, UniProt P21397); assay: Inhibition of recombinant human MAO-A at 10 uM
T3 sequence (P21397 whole entry): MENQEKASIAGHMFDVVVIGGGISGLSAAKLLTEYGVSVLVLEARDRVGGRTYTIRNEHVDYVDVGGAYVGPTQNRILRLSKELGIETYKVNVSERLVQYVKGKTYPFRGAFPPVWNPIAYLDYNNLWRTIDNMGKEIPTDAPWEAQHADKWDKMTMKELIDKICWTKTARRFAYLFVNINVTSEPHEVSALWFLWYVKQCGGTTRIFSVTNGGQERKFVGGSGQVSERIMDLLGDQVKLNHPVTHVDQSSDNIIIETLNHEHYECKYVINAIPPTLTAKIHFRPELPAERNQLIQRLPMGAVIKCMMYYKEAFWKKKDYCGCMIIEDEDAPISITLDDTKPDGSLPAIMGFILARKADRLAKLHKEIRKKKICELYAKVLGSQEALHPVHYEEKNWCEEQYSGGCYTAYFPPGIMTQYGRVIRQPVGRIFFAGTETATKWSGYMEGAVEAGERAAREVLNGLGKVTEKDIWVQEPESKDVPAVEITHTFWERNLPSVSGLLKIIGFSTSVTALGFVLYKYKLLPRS

[15] = Toxicity against 615 mouse xenografted with mouse MFC cells in assessed as pathological changes in liver at 10 to 50 mg/kg, po for 14 days by Hematoxylin and Eosin staining based microscopic analysis; type: organism-based; conditions: in vivo, 336 h, dose 10-50 mg/kg, time 14 day
[16] = Toxicity against 615 mouse xenografted with mouse MFC cells in assessed as pathological changes in lungs at 10 to 50 mg/kg, po for 14 days by Hematoxylin and Eosin staining based microscopic analysis; type: organism-based; conditions: in vivo, 336 h, dose 10-50 mg/kg, time 14 day
[17] = system: MFC; assay: Downregulation of PD-L1 expression in mouse MFC cell membrane at 5 to 20 uM incubated for 5 days by Western blot anlaysis; type: functional, cell membranes; conditions: dose 5-20 µM, time 5.0 day
[18] = biological target: T1, Lysine-specific histone demethylase 1A; assay: Inhibition of recombinant LSD1 (unknown origin) expressed in Escherichia coli BL21 (DE3) using H3K4me2 peptide as substrate incubated for 30 mins by fluorescence based microplate reader assay
[19] = system: BGC-823; assay: Anticancer activity against human BGC-823 cells assessed as increase in CD3/CD28 activated T-cell killing response at 5 to 20 uM incubated for 5 days by DAPI staining based assay; type: functional; conditions: dose 5-20 µM, time 5.0 day
[20] = system: BGC-823; assay: Anticancer activity against human LSD1 knockout BGC-823 cells assessed as increase in CD3/CD28 activated T-cell killing response at 5 to 20 uM incubated for 5 days by DAPI staining based assay; type: functional; conditions: dose 5-20 µM, time 5.0 day
[21] = system: MFC; assay: Antitumor activity against mouse MFC cells xenografted in 615 mouse assessed as decrease in Ki67 expression in tumor at 10 to 50 mg/kg, po for 14 days by immunohistochemistry; type: functional, organism-based; conditions: dose 10-50 mg/kg, time 14.0 day
[22] = system: MFC; assay: Antitumor activity against mouse MFC cells xenografted in 615 mouse assessed as increase in infiltration of CD4+ T cells into tumor at 10 to 50 mg/kg, po for 14 days by immunohistochemistry; type: functional, organism-based; conditions: dose 10-50 mg/kg, time 14.0 day

## c1ccc2c(c1)Sc1ccccc1N2CCN1CCOCC1
[1]
  inhibition: inactive
[2]
  Activity: Active
[3]
  Activity: Active
[4]
  inhibition: Active
[5]
  Activity: Non-Toxic
[6]
  Activity: inactive
[7]
  Activity: Non-Toxic
[8]
  Activity: inactive
[9]
  Activity: Non-Toxic
[10]
  inhibition: > 10%
[11]
  Activity: inactive
[12]
  inhibition: inactive
[13]
  Activity: Active
[14]
  inhibition at 10 µM: < 10%
[15]
  Activity: Non-Toxic
[16]
  Activity: Non-Toxic
[17]
  Activity: Dose-Dependent Effect
[18]
  IC50: 247 nM
[19]
  Activity: Dose-Dependent Effect
[20]
  Activity: inactive
[21]
  Activity: Active
[22]
  Activity: Active
